These results are taken from PMC12136991 (ACS chemical neuroscience, 2025).

For series [1], the target named is T1, human δ-opioid receptor (OPRD1) (Homo sapiens, UniProt P41143). In words: Forskolin-induced cAMP accumulation assay, DOR antagonist mode. As to conditions: for DOR Antagonist %Imax ± SEM: versus EC50 of SNC80, normalized to naltrexone. In general terms: Changes in cAMP serve as a functional read-out for many G protein-coupled receptors.
In series [2] the target is T2, mouse mu opioid receptor (mMOR-CHO) (Mus musculus, UniProt P42866). In words: [35S]GTPγS functional assay, mMOR-CHO membranes. The series is classed as biochemical.
In series [3] the test system is mice. The conditions noted are these: administered before IP 0.56% lactic acid; previously published; cited from earlier work.
Series [4] can be described thus: Multi-point cytosol stability assay, mouse. The series is classed as in vitro ADME. As to conditions: mouse cytosol fractions, pH 7.4.
Series [5] is described as follows: Kinetic solubility assay. The class given is physicochemical. As to conditions: kinetic from dmso stock.
Series [6] can be described thus: Multi-point cytosol stability assay, rat. The class given is in vitro ADME. The conditions noted are these: rat cytosol fractions, pH 7.4.
Series [7] in a line: Multi-point cytosol stability assay, human. The series is classed as in vitro ADME. As to conditions: human cytosol fractions, pH 7.4.
In series [8] the target is T3, human κ-opioid receptor (OPRK1) (Homo sapiens, UniProt P41145). In words: Forskolin-induced cAMP accumulation assay, KOR antagonist mode.
Series [9] can be described thus: Multi-point microsome stability assay, rat. The series is classed as in vitro ADME. As to conditions: male, Sprague Dawley, rat microsomal fractions, pH 7.4.
A short description of series [10]: Multi-point microsome stability assay, human. The class given is in vitro ADME. The conditions noted are these: both, human microsomal fractions, pH 7.4.
A short description of series [11]: Multi-point microsome stability assay, mouse. The series is classed as in vitro ADME. The conditions noted are these: male, CD-1, mouse, mouse microsomal fractions, pH 7.4.
For series [12], the target named is human μ-opioid receptor (OPRM1) (Homo sapiens, UniProt P35372). In words: cell-based.
Series [13] concerns the target T3, human κ-opioid receptor (OPRK1). Briefly: Forskolin-induced cAMP accumulation assay, KOR agonist mode.
In series [14] the target is T2, mouse mu opioid receptor (mMOR-CHO). Briefly: Competition radioligand binding assay, [3H]naloxone, mMOR-CHO membranes.
The subject of series [15] is mice. In words: Assay of pain-depressed locomotion in mice. The series is classed as in vivo, mouse.
The target in series [16] is T4, KOR (mKOR-CHO) (Mus musculus, UniProt P33534). Briefly: [35S]GTPγS functional assay, mKOR-CHO membranes. The class given is biochemical. The conditions noted are these: KOR-mediated [35S]GTPγS binding, up to 30 μM. A general note: Binding of GTPγS marks nucleotide exchange on a G protein.
Series [17] addresses T4, KOR (mKOR-CHO). Briefly: Competition radioligand binding assay, mKOR-CHO membranes.
Series [18] addresses T5, DOR (hDOR-CHO) (Homo sapiens, UniProt P41143). Briefly: [35S]GTPγS functional assay, hDOR-CHO membranes. The series is classed as biochemical.
The target in series [19] is T5, DOR (hDOR-CHO). Briefly: Competition radioligand binding assay, hDOR-CHO membranes. As to conditions: DOR Receptor binding Ki, CHO cell membranes expressing cloned DOR.
The target in series [20] is T1, human δ-opioid receptor (OPRD1). Briefly: Forskolin-induced cAMP accumulation assay, DOR agonist mode.
Where [21] appears, read: SC 30 min before 15 min session, significant increase, 12 mice per dose.

Values after ≈ are worked out from the molar mass of the structure shown. “Also recorded” adds a separate entry of the source.

By half-life is commonly meant how long it takes for the measured level to halve. A word on the solubility (kinetic): it is solubility judged after dilution from a stock solution rather than from solid. Turning to `C=C[C@H]1[C@H]2CCC[C@]1(c1cccc(O)c1)CCN2CCc1ccccc1` [DC-1–76.2, 3-((1R,5S,9R)-2-phenethyl-9-vinyl-2-azabicyclo[3.3.1]nonan-5-yl)phenol, reference compound], the “DOR Antagonist %Imax ± SEM” value in series [1] was found to be 119.1 ± 15.5%. The “GTPγS % Emax of (DAMGO)” value in series [2] (MOR, % of maximal DAMGO stimulation) was found to be 29.09 ± 0.78%. Besides, the “effect on IP acid-induced depression of Crosses and Movement” value in series [3] is on record as “failed to alleviate IP acid-induced depression of Crosses but did alleviate IP acid-induced depression of Movement”. The half-life at 1 μM in series [4] is 71.9 min; in series [6] it was greater than 120 min; in series [7], 80.7 min; in series [9], 6.9 min; in series [10] it was 12 min; in [11], 4.7 min. The solubility (kinetic) in [5] is 34 µg/mL (≈ 97.8 µM). The “KOR Antagonist %Imax ± SEM” value in series [8] (versus EC90 of U50488H, normalized to nor-BNI) came to 97.1 ± 9.2%.
A word on the IC50: it is the concentration that inhibits the measured activity by half. Lower therefore signals inhibition by little substance. Usually EC50 stands for the concentration needed to bring the measured effect to its halfway point. The low end stands for higher potency in that assay, the high end for lower potency in that assay. What is called Emax is the greatest response seen or fitted, relative to the assay's reference. What is called Ki is a dissociation constant, usually derived from enzyme kinetics or from competition with a known ligand. Read a high Ki as a looser hold on the target. `C=C[C@H]1[C@H]2CCC[C@]1(c1cccc(C(N)=O)c1)CCN2CCc1ccccc1` [compound 5, 3-((1R,5S,9R)-2-Phenethyl-9-vinyl-2-azabicyclo[3.3.1]nonan-5-yl)benzamide]: the IC50 in series [1] is 498 ± 208 nM; in series [8] it was greater than 10000 nM. For the same compound, in series [1], the “DOR Antagonist %Imax ± SEM” value was determined as 117.6 ± 8.0%. Also, the EC50 in series [2] was 23.3 ± 6.45 nM; in series [12], 5.28 nM; in [13], greater than 10000 nM; in series [18] it was 1460 ± 594 nM; in series [20], 6.01 ± 4.97 nM. Moreover, the Emax in series [2] (read-out: GTPγS % Emax of (DAMGO), MOR, % of maximal DAMGO stimulation) was 15.4 ± 1.8%; in [12] (OPRM1, read-out: MOR Agonist %Emax ± SEM), 75.1%; in series [18] (read-out: DOR GTPγS % Emax of (DAMGO)) it was -6.98 ± 1.21%; in series [20] (read-out: DOR Agonist %Emax ± SEM), 25.2%. Also, the results for the Ki in series [14], in [17] and in series [19] were 1.24 ± 0.17 nM, 48.7 ± 7.06 nM and 237 nM, respectively. Further, the “Crosses, drug administered alone: dose different from Vehicle” value in [15] (setting [21]) is on record as 18 mg/kg. Moreover, the “Movement, drug administered alone: doses different from Vehicle” value in [15] (setting [21]) fell in the range of 10 to 18 mg/kg. Moreover, in series [15] (SC pretreatment to IP 0.56% lactic acid), the “antinociceptive attenuation of IP acid-induced depression of Crosses: dose different from Vehicle+IP acid” value was 18 mg/kg. Moreover, the half-life at 1 μM in [4] is greater than 120 min; in series [6], greater than 120 min; in series [7], greater than 120 min; in series [9], 3.2 min; in [10], 40.4 min; in series [11], 16.7 min. In addition, the kinetic solubility in [5] came out at 5.1 µg/mL (≈ 13.6 µM). Further, the “KOR GTPγS % Emax of (DAMGO)” value in [16] was “did not stimulate; also recorded: No Stim”.
